Publication PMC5966403 (2018)

Legend:
[1] = tested on: TSL2 (RNA, hairpin) AUUCCUUAAAUUAAGGAGU; experiment: TO-PRO-1 fluorescence displacement; settings: Na+ (185 mM NaCl, 8 mM Na2HPO4); pH 7, 0.1 mM EDTA, 40 μg/mL BSA; 0.5 μM RNA; TO-PRO-1 (1 μM) displaced
[2] = tested on: TSL2 (RNA, hairpin) AUUCCUUAAAUUAAGGAGU; experiment: RiboGreen fluorescence displacement; settings: Na+ (185 mM NaCl, 8 mM Na2HPO4); RiboGreen (300 nM) displaced
[3] = tested on: TSL2 (RNA, hairpin) AUUCCUUAAAUUAAGGAGU; experiment: NMR (TOCSY) chemical-shift perturbation; settings: 40–50 μM RNA, 20 equivalents PK4C9; shifts at U2 and U19

Structure (SMILES) | EC50 [1] | binding [2] | binding [3]
N=C(N)c1ccc(Nc2ccc(-c3cc4ccc(C(=N)N)cc4[nH]3)cc2)cc1 | 4.5 µM | – | –
O=C(c1cnc(C(=O)c2c[nH]c3cc(O)ccc23)[nH]1)c1c[nH]c2ccccc12 | 16 µM | yes | yes
O=C(c1cnc(C(=O)c2c[nH]c3ccccc23)[nH]1)c1c[nH]c2ccccc12 | 85.9 µM | – | –
